From article PMC12530843, “Identification of a New Interesting BAG3 Modulator Able to Disrupt Cancer‐Related Pathways” (Chemmedchem, 2025) come the findings set out here.

Assay [1] concerns HeLa cells. The assay is described as follows: Thioflavin T (ThT) protein misfolding staining. To be noted: HeLa, 3, 6 and 12 µM, 72 h; p < 0.01 (3 µM), p < 0.001 (6, 12 µM) vs. Ctrl. The format is cell-based, human. As for the experimental part:
Protein misfolding was analyzed by using Thioflavin T (ThT, Sigma Aldrich, St. Louis, MO, USA) staining.^[ [39] ^] HeLa cells (4 × 10^3 cells well^−1) were grown in 96‐well plates and allowed to adhere for 24 h. The medium was then replaced, and the cells were treated with compound 2 (3, 6, and 12 µM) for 72 h. The final concentration of DMSO for the tested compound was 0.1%, which is consistent with the percentage of DMSO used in the negative control. After treatments, the culture medium was replaced, cells were washed with PBS and 100 μL well^−1 of ThT was added (final concentration, 20 µM). After incubation at 37 °C for 20 min in the dark, live cells were analyzed by using ZOE Fluorescent Cell Imager microscope (Biorad, Hercules, California, USA). Magnification, 20×. Scale bar: 100 μm (N ≥ 5). Quantitative analyses were performed in end point mode using a PerkinElmer EnSpire multimode plate reader (excitation/emission 450 nm/482 nm).

The test system of assay [2] is HeLa cells. The assay is described as follows: Annexin V-FITC/PI apoptosis staining. The class given is cell-based, human. Particulars: 72 h. The procedure:
Apoptosis in HeLa cells was evaluated using Annexin V‐FITC/PI staining. Hela cells (20 × 10^3) were seeded into 24‐well plates and incubated for 72 h with compound 2. The final concentration of DMSO for the tested compound was 0.1%, which was consistent with the percentage of DMSO used in the negative control. After treatments, cells were resuspended in a 100 μL of assay buffer per well, after which 5 μL of Annexin V‐FITC and 1 μL of PI reagents were added. […] The cells were analyzed with a Becton Dickinson FACScan flow cytometer using the Cell Quest software, version 4 (Franklin Lakes, NJ, USA).

Assay [3] deals with T1, BAG3 (Homo sapiens, UniProt O95817).
T1 construct: endogenous in cells; host or cells: HeLa cell lysate
T1 sequence (O95817 whole entry): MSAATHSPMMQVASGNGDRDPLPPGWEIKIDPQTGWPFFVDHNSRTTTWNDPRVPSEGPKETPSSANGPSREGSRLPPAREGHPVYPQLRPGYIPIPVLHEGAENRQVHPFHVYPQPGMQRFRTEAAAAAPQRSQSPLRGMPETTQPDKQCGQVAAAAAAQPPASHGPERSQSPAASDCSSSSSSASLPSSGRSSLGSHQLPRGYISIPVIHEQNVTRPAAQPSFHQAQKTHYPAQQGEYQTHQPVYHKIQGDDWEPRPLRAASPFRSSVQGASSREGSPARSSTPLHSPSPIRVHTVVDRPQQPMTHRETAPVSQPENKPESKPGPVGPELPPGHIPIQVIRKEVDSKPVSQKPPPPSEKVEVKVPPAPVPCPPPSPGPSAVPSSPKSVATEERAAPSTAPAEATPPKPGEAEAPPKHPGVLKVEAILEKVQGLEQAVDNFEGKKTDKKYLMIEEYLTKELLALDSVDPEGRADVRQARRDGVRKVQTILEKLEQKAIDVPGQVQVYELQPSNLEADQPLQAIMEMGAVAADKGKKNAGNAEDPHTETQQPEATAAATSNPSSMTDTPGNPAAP
Kind of assay: t-LiP-MS (targeted limited proteolysis-MS) in HeLa cell lysate. The class given is binding. To be noted: SP18 100 µM, subtilisin 30 min. As for the experimental part: To develop the t‐LiP‐MS experiment, MRM methods were optimized by selecting tryptic peptides for BAG3 (UniProt Accession: O95817) using the Human PeptideAtlas data repository in combination with SRMAtlas for their daughter ion identification. First, the three best transitions for each peptide were selected (obtaining a list of 57 transitions) and tested on a tryptic‐digested HeLa cell lysate, following the protocol of Capuano et al., 2024.^[ [41] ^] For chromatographic separation, 15 µL of peptide mixture samples (dissolved in 10% formic acid (FA) to a final concentration of 2 µg µL^−1) were injected and separated on an Aeris Peptide XB C18 column (50 × 2.1 mm, 3.6 μm, 100 Å, Phenomenex, Torrance, USA) using a gradient from 5% to 95% B in 12 min (A: 0.1% FA in H2O, B: 0.1% FA in CH3CN). QTrap parameters were as follows: curtain gas (CUR) = 30; ion‐spray voltage (IS) = 5500; temperature (TEM) = 250 °C; ion source gas 1 (GS1) = 25; ion source gas 2 (GS2) = 25; declustering potential (DP) = 80; entrance potential (EP) = 15; collision cell exit potential (CXP) = 12. Data acquisition and processing were performed using Analyst software 1.6.2 (AB Sciex, Foster City, CA, USA). At the end of the preliminary experiment, 14 best transitions were selected for the final MRM method.
For the t‐Lip‐MS experiment, HeLa cell lysate ([…]) was divided into aliquots and incubated for 1 hr either with DMSO (control sample) or SP18 (100 µM in DMSO) at room temperature under shaking (Mini‐Rotator, Biosan). Samples were then first subjected to limited proteolysis with the nonspecific enzyme subtilisin (enzyme‐to‐proteins ratio of 1:1500 w/w) for 30 min, at room temperature and under continuous shaking (500 rpm, Thermomixer, Biosan) and then extensively digested with the specific protease trypsin (enzyme to proteins ratio of 1:100 w/w, overnight, room temperature, 300 RPM).^[ [42] ^] […] Fold change (Fc) (the ratio between the peak area in the treated sample and control sample) was calculated for each peptide, and only those with Fc ≥1.5 and p‐value ≤0.05 were considered protected.^[ [41] ^]

Regarding `O=C(OCc1cn(Cc2ccc3c(c2)C(=O)c2ccccc2C3=O)nn1)c1cccc([N+](=O)[O-])c1` [Compound 2, (1‐((9,10‐Dioxo‐9,10‐dihydroanthracen‐2‐yl)methyl)‐1H‐1,2,3‐triazol‐4‐yl)methyl 3‐nitrobenzoate], the “protein misfolding and aggregate formation (ThT)” value in assay [1] was “significant induction of protein misfolding and aggregate formation”. Besides, the cells undergoing apoptosis in assay [2] (20 µM, p < 0.05 vs. control) worked out at 21.6 ± 1.14%; in assay [2] (30 µM, p < 0.05 vs. control), 28.0 ± 3.41%; in assay [2] (50 µM, p < 0.01 vs. control), 40.2 ± 2.11%.

For `O=C(OCc1cn(Cc2ccc(C(=O)c3ccccc3)cc2)nn1)c1cccc([N+](=O)[O-])c1` [SP18], the “Fold change (Fc) of protected BAG3 peptide V [432–445] K” value in assay [3] (p value 0.01) was determined as 1.74. For the same molecule, the “Fold change (Fc) of protected BAG3 peptide E [461–473] R” value in assay [3] (p value 0.02) amounted to 1.67. In addition, the “Fold change (Fc) of protected BAG3 peptide T [231–249] K” value in assay [3] (p value 0.04) was 1.68.
